# The source made the active and inactive calls. The calls are words filed in the database; no cut-off is given here.
# Key:
# MV4-11 [1] = assay: cells; details: Homo sapiens
# Description: Antiproliferative activity against human MV4-11 cells by CCK-8 assay
# A549 = assay: cells; details: Homo sapiens
# Description: Antiproliferative activity against human A549 cells by CCK-8 assay
# HCT-116 = assay: cells; details: Homo sapiens
# Description: Antiproliferative activity against human HCT-116 cells by CCK-8 assay
# MV4-11 [2] = assay: Cell cycle arrest in human MV4-11 cells assessed as increase in accumulation at G0/G1-phase measured after 24 hrs by propidium iodide staining based flow cytometry; format: functional; details: dose 0.2-10 µM
# c-Kit = c-Kit (Homo sapiens, UniProt P10721); assay: Inhibition of c-Kit (unknown origin) at 100 uM relative to control; format: toxicity
# Chain of c-Kit (P10721 whole entry): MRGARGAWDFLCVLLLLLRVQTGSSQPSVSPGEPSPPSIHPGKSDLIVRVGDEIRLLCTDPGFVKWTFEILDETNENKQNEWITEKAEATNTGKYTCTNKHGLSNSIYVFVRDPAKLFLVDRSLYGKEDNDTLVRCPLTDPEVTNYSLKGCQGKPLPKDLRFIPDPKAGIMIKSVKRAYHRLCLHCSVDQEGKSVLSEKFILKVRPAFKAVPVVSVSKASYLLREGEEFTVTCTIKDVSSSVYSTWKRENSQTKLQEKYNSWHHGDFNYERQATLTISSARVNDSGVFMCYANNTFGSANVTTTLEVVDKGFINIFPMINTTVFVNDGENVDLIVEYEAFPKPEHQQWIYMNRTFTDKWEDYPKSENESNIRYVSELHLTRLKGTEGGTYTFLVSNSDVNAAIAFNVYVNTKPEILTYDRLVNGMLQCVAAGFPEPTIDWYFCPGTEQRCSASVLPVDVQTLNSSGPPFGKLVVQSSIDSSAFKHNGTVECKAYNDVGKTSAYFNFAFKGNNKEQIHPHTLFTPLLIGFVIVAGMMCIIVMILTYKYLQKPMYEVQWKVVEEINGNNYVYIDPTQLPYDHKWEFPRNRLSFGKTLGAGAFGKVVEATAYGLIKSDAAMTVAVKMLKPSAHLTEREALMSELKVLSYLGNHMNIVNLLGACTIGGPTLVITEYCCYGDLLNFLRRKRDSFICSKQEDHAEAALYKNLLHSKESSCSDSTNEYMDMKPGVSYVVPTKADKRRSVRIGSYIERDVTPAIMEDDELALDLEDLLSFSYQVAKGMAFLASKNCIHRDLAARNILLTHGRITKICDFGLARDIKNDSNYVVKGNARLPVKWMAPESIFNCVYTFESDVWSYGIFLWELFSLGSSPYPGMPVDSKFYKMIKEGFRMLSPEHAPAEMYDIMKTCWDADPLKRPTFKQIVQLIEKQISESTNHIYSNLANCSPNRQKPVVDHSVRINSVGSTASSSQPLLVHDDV
# MV4-11 [3] = assay: Cell cycle arrest in human MV4-11 cells assessed as accumulation at G1-phase at 0.2 uM measured after 24 hrs by propidium iodide staining based flow cytometry (reference value: 70.31%); format: functional
# MV4-11 [4] = assay: Cell cycle arrest in human MV4-11 cells assessed as accumulation at G2-phase at 0.2 uM measured after 24 hrs by propidium iodide staining based flow cytometry (reference value: 8.87%); format: functional
# MV4-11 [5] = assay: Cell cycle arrest in human MV4-11 cells assessed as accumulation at S-phase at 0.2 uM measured after 24 hrs by propidium iodide staining based flow cytometry (reference value: 20.83%); format: functional
# MV4-11 [6] = assay: Cell cycle arrest in human MV4-11 cells assessed as accumulation at G1-phase at 2 uM measured after 24 hrs by propidium iodide staining based flow cytometry (reference value: 70.31%); format: functional
# MV4-11 [7] = assay: Cell cycle arrest in human MV4-11 cells assessed as accumulation at G2-phase at 2 uM measured after 24 hrs by propidium iodide staining based flow cytometry (reference value: 8.87%); format: functional
# MV4-11 [8] = assay: Cell cycle arrest in human MV4-11 cells assessed as accumulation at S-phase at 2 uM measured after 24 hrs by propidium iodide staining based flow cytometry (reference value: 20.83%); format: functional
# MV4-11 [9] = assay: Cell cycle arrest in human MV4-11 cells assessed as accumulation at G1-phase at 10 uM measured after 24 hrs by propidium iodide staining based flow cytometry (reference value: 70.31%); format: functional
# MV4-11 [10] = assay: Cell cycle arrest in human MV4-11 cells assessed as accumulation at G2-phase at 10 uM measured after 24 hrs by propidium iodide staining based flow cytometry (reference value: 8.87%); format: functional
# MV4-11 [11] = assay: Cell cycle arrest in human MV4-11 cells assessed as accumulation at S-phase at 10 uM measured after 24 hrs by propidium iodide staining based flow cytometry (reference value: 20.83%); format: functional
# MV4-11 [12] = assay: Induction of morphological changes in human MV4-11 cells assessed as cell wrinkling; format: functional, cell-based
# MV4-11 [13] = assay: Induction of morphological changes in human MV4-11 cells assessed as cell fragmentation; format: functional, cell-based
# MV4-11 [14] = assay: Induction of apoptosis in human MV4-11 cells measured after 24 hrs by Annexin V-FITC/propidium iodide staining based flow cytometry; format: functional, cell-based; details: dose 0.2-5 µM
# MV4-11 [15] = assay: Induction of apoptosis in human MV4-11 cells assessed as viable cells at 0.2 uM measured after 24 hrs by Annexin V-FITC/propidium iodide staining based flow cytometry (reference value: 92.7%); format: functional; details: read-out: Activity
# MV4-11 [16] = assay: Induction of apoptosis in human MV4-11 cells assessed as early apoptotic cells at 0.2 uM measured after 24 hrs by Annexin V-FITC/propidium iodide staining based flow cytometry (reference value: 5.2%); format: functional
# MV4-11 [17] = assay: Induction of apoptosis in human MV4-11 cells assessed as late apoptotic cells at 0.2 uM measured after 24 hrs by Annexin V-FITC/propidium iodide staining based flow cytometry (reference value: 2%); format: functional
# MV4-11 [18] = assay: Induction of apoptosis in human MV4-11 cells assessed as necrotic cells at 0.2 uM measured after 24 hrs by Annexin V-FITC/propidium iodide staining based flow cytometry (reference value: 0.2%); format: functional
# MV4-11 [19] = assay: Induction of apoptosis in human MV4-11 cells assessed as viable cells at 2 uM measured after 24 hrs by Annexin V-FITC/propidium iodide staining based flow cytometry (reference value: 92.7%); format: functional; details: read-out: Activity
# MV4-11 [20] = assay: Induction of apoptosis in human MV4-11 cells assessed as viable cells at 5 uM measured after 24 hrs by Annexin V-FITC/propidium iodide staining based flow cytometry (reference value: 92.7%); format: functional; details: read-out: Activity
# MV4-11 [21] = assay: Induction of apoptosis in human MV4-11 cells assessed as early apoptotic cells at 2 uM measured after 24 hrs by Annexin V-FITC/propidium iodide staining based flow cytometry (reference value: 5.2%); format: functional
# MV4-11 [22] = assay: Induction of apoptosis in human MV4-11 cells assessed as late apoptotic cells at 2 uM measured after 24 hrs by Annexin V-FITC/propidium iodide staining based flow cytometry (reference value: 2%); format: functional
# MV4-11 [23] = assay: Induction of apoptosis in human MV4-11 cells assessed as necrotic cells at 2 uM measured after 24 hrs by Annexin V-FITC/propidium iodide staining based flow cytometry (reference value: 0.2%); format: functional
# MV4-11 [24] = assay: Induction of apoptosis in human MV4-11 cells assessed as early apoptotic cells at 5 uM measured after 24 hrs by Annexin V-FITC/propidium iodide staining based flow cytometry (reference value: 5.2%); format: functional
# MV4-11 [25] = assay: Induction of apoptosis in human MV4-11 cells assessed as late apoptotic cells at 5 uM measured after 24 hrs by Annexin V-FITC/propidium iodide staining based flow cytometry (reference value: 2%); format: functional
# MV4-11 [26] = assay: Induction of apoptosis in human MV4-11 cells assessed as necrotic cells at 5 uM measured after 24 hrs by Annexin V-FITC/propidium iodide staining based flow cytometry (reference value: 0.2%); format: functional
# MV4-11 [27] = assay: Induction of mitochondrial membrane potential loss in human MV4-11 cells measured after 24 hrs by JC-1 staining based flow cytometry; format: functional, cell-based; details: dose 0.2-10 µM
# MV4-11 [28] = assay: Induction of mitochondrial membrane potential loss in human MV4-11 cells assessed as cells with high MMP (aggregates) at 0.2 uM measured after 24 hrs by JC-1 staining based flow cytometry (reference value: 97%); format: functional
# MV4-11 [29] = assay: Induction of mitochondrial membrane potential loss in human MV4-11 cells assessed as cells with low MMP (monomers) at 0.2 uM measured after 24 hrs by JC-1 staining based flow cytometry (reference value: 2.9%); format: functional
# MV4-11 [30] = assay: Induction of mitochondrial membrane potential loss in human MV4-11 cells assessed as cells with high MMP (aggregates) at 2 uM measured after 24 hrs by JC-1 staining based flow cytometry (reference value: 97%); format: functional
# MV4-11 [31] = assay: Induction of mitochondrial membrane potential loss in human MV4-11 cells assessed as cells with low MMP (monomers) at 2 uM measured after 24 hrs by JC-1 staining based flow cytometry (reference value: 2.9%); format: functional
# MV4-11 [32] = assay: Induction of mitochondrial membrane potential loss in human MV4-11 cells assessed as cells with high MMP (aggregates) at 10 uM measured after 24 hrs by JC-1 staining based flow cytometry (reference value: 97%); format: functional
# MV4-11 [33] = assay: Induction of mitochondrial membrane potential loss in human MV4-11 cells assessed as cells with low MMP (monomers) at 10 uM measured after 24 hrs by JC-1 staining based flow cytometry (reference value: 2.9%); format: functional
# [34] = target: Mast/stem cell growth factor receptor Kit (Homo sapiens, UniProt P10721)
# Chain of Mast/stem cell growth factor receptor Kit (P10721 whole entry): as above
# in vitro = details: human, HEK293T cells
# Description: Cytotoxicity against HEK293T cells by CCK-8 assay
# [35] = Effect on total FLT3 expression in human MV4-11 cells at 0.2 uM measured after 24 hrs by Western blot analysis; format: toxicity, cell-based; details: mv4-11, 24 h
# [36] = Effect on total STAT5 expression in human MV4-11 cells at 0.2 uM measured after 24 hrs by Western blot analysis; format: toxicity, cell-based; details: mv4-11, 24 h
# [37] = Effect on total ERK expression in human MV4-11 cells at 0.2 uM measured after 24 hrs by Western blot analysis; format: toxicity, cell-based; details: mv4-11, 24 h
# [38] = Effect on total AKT expression in human MV4-11 cells at 0.2 uM measured after 24 hrs by Western blot analysis; format: toxicity, cell-based; details: mv4-11, 24 h
structure (smiles),measurement,setting,value
NC(=O)c1cnc(N2CCCC2)nc1Nc1ccc(Oc2ccccc2)cc1,IC50,MV4-11 [1],35.8 µM
same,IC50,A549,10.6 µM
same,IC50,HCT-116,> 50 µM
CCNC(=O)c1c(C)nc(NC2CCN(C)CC2)nc1Nc1ccc(Oc2ccccc2)cc1,IC50,MV4-11 [1],5.03 µM
same,IC50,A549,20 µM
same,IC50,HCT-116,23.4 µM
NC(=O)c1cnc(NC2CCCC2)nc1Nc1ccc(Oc2ccccc2)cc1,IC50,MV4-11 [1],7.68 µM
same,IC50,A549,20 µM
same,IC50,HCT-116,23.3 µM
CC(C)N1CCC(Nc2ncc(C(N)=O)c(Nc3ccc(Oc4ccccc4)cc3)n2)CC1,Activity,MV4-11 [2],Dose-dependent-effect
same,inhibition at 100 µM,c-Kit,17.5%
same,Activity,MV4-11 [3],75.47%
same,Activity,MV4-11 [4],4.45%
same,Activity,MV4-11 [5],20.08%
same,Activity,MV4-11 [6],82.96%
same,Activity,MV4-11 [7],5.41%
same,Activity,MV4-11 [8],11.9%
same,Activity,MV4-11 [9],89.91%
same,Activity,MV4-11 [10],5.7%
same,Activity,MV4-11 [11],4.39%
same,Activity,MV4-11 [12],Active
same,Activity,MV4-11 [13],Active
same,Activity,MV4-11 [14],Dose-dependent-effect
same,viability at 0.2 µM,MV4-11 [15],78.5%
same,Activity,MV4-11 [16],15.1%
same,Activity,MV4-11 [17],6%
same,Activity,MV4-11 [18],0.3%
same,viability at 2 µM,MV4-11 [19],32.8%
same,viability at 5 µM,MV4-11 [20],11.7%
same,Activity,MV4-11 [21],50.5%
same,Activity,MV4-11 [22],16.4%
same,Activity,MV4-11 [23],0.3%
same,Activity,MV4-11 [24],51.7%
same,Activity,MV4-11 [25],35.8%
same,Activity,MV4-11 [26],0.8%
same,Activity,MV4-11 [27],Dose-dependent-effect
same,Activity,MV4-11 [28],96.2%
same,Activity,MV4-11 [29],3.8%
same,Activity,MV4-11 [30],94.9%
same,Activity,MV4-11 [31],5%
same,Activity,MV4-11 [32],86.6%
same,Activity,MV4-11 [33],13.1%
same,IC50,[34],> 100 µM
same,IC50,MV4-11 [1],0.59 µM
same,IC50,A549,7.73 µM
same,IC50,HCT-116,3.14 µM
same,IC50,in vitro,40.2 µM
N#Cc1cnc(NC2CCCC2)nc1Nc1ccc(Oc2ccccc2)cc1,IC50,MV4-11 [1],35.2 µM
same,IC50,A549,> 50 µM
same,IC50,HCT-116,> 50 µM
CC(=O)N1CCC(Nc2nc(Nc3ccc(Oc4ccccc4)cc3)c3ccccc3n2)CC1,IC50,MV4-11 [1],6.96 µM
same,IC50,A549,9.87 µM
same,IC50,HCT-116,24.2 µM
Cc1nc(NC2CCN(C)CC2)nc(Nc2ccc(Oc3ccccc3)cc2)c1C(=O)O,IC50,MV4-11 [1],> 50 µM
same,IC50,A549,> 50 µM
same,IC50,HCT-116,> 50 µM
CC(C)N1CCC(Nc2ncc(C#N)c(Nc3ccc(Oc4ccccc4)cc3)n2)CC1,IC50,MV4-11 [1],7.19 µM
same,IC50,A549,> 50 µM
same,IC50,HCT-116,> 50 µM
CCOC(=O)c1c(C)nc(NC2CCN(C)CC2)nc1Nc1ccc(Oc2ccccc2)cc1,IC50,MV4-11 [1],5.36 µM
same,IC50,A549,7.86 µM
same,IC50,HCT-116,1.35 µM
CN1CCC(N(C)c2ncc(C(N)=O)c(Nc3ccc(Oc4ccccc4)cc3)n2)CC1,IC50,MV4-11 [1],0.66 µM
same,IC50,A549,7.67 µM
same,IC50,HCT-116,3.93 µM
CN1CCC(N(C)c2ncc(C#N)c(Nc3ccc(Oc4ccccc4)cc3)n2)CC1,IC50,MV4-11 [1],2.09 µM
same,IC50,A549,12.5 µM
same,IC50,HCT-116,5.99 µM
N#Cc1cnc(N2CCCC2)nc1Nc1ccc(Oc2ccccc2)cc1,IC50,MV4-11 [1],30.9 µM
same,IC50,A549,> 50 µM
same,IC50,HCT-116,> 50 µM
CN1CCC(Nc2ncc(C(N)=O)c(Nc3ccc(Oc4ccccc4)cc3)n2)CC1,IC50,MV4-11 [1],2.09 µM
same,IC50,A549,2.88 µM
same,IC50,HCT-116,1.9 µM
CN1CCC(Nc2ncc(C#N)c(Nc3ccc(Oc4ccccc4)cc3)n2)CC1,IC50,MV4-11 [1],12.5 µM
same,IC50,A549,> 50 µM
same,IC50,HCT-116,8.99 µM
CN1CCC(Nc2nc(Nc3ccc(Oc4ccccc4)cc3)c3c(=O)[nH]cc(Br)c3n2)CC1 [DENFIVONTINIB],Activity,MV4-11 [3],89.36%
same,Activity,MV4-11 [4],4.11%
same,Activity,MV4-11 [5],6.52%
same,viability at 0.2 µM,MV4-11 [15],15.8%
same,Activity,MV4-11 [16],49.6%
same,Activity,MV4-11 [17],33.9%
same,Activity,MV4-11 [18],0.7%
same,Activity,MV4-11 [28],85.1%
same,Activity,MV4-11 [29],14.6%
same,Activity,[35],Non-toxic
same,Activity,[36],Non-toxic
same,Activity,[37],Non-toxic
same,Activity,[38],Non-toxic
same,IC50,[34],0.0038 µM
same,IC50,MV4-11 [1],0.003 µM
same,IC50,A549,0.14 µM
same,IC50,HCT-116,3.13 µM
same,IC50,in vitro,9.67 µM
CN1CCC(Nc2nc(Nc3ccc(Oc4ccccc4)cc3)c3ccccc3n2)CC1,IC50,MV4-11 [1],5.13 µM
same,IC50,A549,4.05 µM
same,IC50,HCT-116,8.51 µM
